Laboratory results published in patent US10638756B2, “Molecules having pesticidal utility, and intermediates, compositions, and processes, related thereto” (Dow AgroSciences LLC, priority 2017, dated 2020).

Key:
[1] = system: Beet Armyworm (Spodoptera exigua); assay: Bioassay on Beet Armyworm (BAW), 128-well diet tray assay; format: in vivo; details: Spodoptera exigua, 168 h; 50 μg/cm^2 on artificial diet, second instar larvae, five to seven days; read-out: BAW % Control (or Mortality) rating
Method: (§1) Certain molecules disclosed in this document were tested against BAW and CL using procedures described in the following examples. In the reporting of the results, the “BAW & CL Rating Table” was used (See Table Section).
Bioassays on BAW were conducted using a 128-well diet tray assay. […] Trays were covered with a clear self-adhesive cover, vented to allow gas exchange, and held at 25° C., 14:10 light-dark for five to seven days. Percent mortality was recorded for the larvae in each well; activity in the eight wells was then averaged. The results are indicated in the table entitled “Table ABC: Biological Results” (See Table Section).

[2] = system: Cabbage Looper (Trichoplusia ni); assay: Bioassay on Cabbage Looper (CL), 128-well diet tray assay; format: in vivo; details: 168 h, 50 μg/cm^2 on artificial diet, second instar larvae, five to seven days, read-out: CL % Control (or Mortality) rating
Method: as §1
Bioassays on CL were conducted using a 128-well diet tray assay. One to five second instar CL larvae were placed in each well (3 mL) of the diet tray that had been previously filled with 1 mL of artificial diet to which 50 μg/cm^2 of the test molecule (dissolved in 50 μL of 90:10 acetone-water mixture) had been applied (to each of eight wells) and then allowed to dry. Trays were covered with a clear self-adhesive cover, vented to allow gas exchange, and held at 25° C., 14:10 light-dark for five to seven days. Percent mortality was recorded for the larvae in each well; activity in the eight wells was then averaged. The results are indicated in the table entitled “Table ABC: Biological Results” (See Table Section).

| SMILES | mortality at 50 µg/cm2 [1] | mortality at 50 µg/cm2 [2] |
| --- | --- | --- |
| NN(CC(=O)NCC(F)(F)F)C(=O)c1ccc(/C(F)=C/C(c2cc(Cl)c(Cl)c(Cl)c2)C(F)(F)F)cc1C(F)(F)F (centres unmarked) [F149, (Z)-2-(1-(4-(1,4,4,4-tetrafluoro-3-(3,4,5-trichlorophenyl)but-1-en-1-yl)-2-(trifluoromethyl)benzoyl)hydrazinyl)-N-(2,2,2-trifluoroethyl)acetamide] | 50 to 100% | 50 to 100% |
| O=C(NNc1ncccn1)c1ccc(/C(F)=C/C(c2cc(Cl)cc(Br)c2)C(F)(F)F)cc1C(F)(F)F (centres unmarked) [F173, (Z)-4-(3-(3-Bromo-5-chlorophenyl)-1,4,4,4-tetrafluorobut-1-en-1-yl)-N′-(pyrimidin-2-yl)-2-(trifluoromethyl)benzohydrazide] | 50 to 100% | 50 to 100% |
| O=C(NNc1c(Cl)cnc(C(Cl)(Cl)Cl)c1Cl)c1ccc(/C(F)=C/C(c2cc(Cl)c(Cl)c(Cl)c2)C(F)(F)F)cc1C(F)(F)F (centres unmarked) [F69, (Z)—N′-(3,5-Dichloro-2-(trichloromethyl)-4-pyridin-4-yl)-4-(1,4,4,4-tetrafluoro-3-(3,4,5-trichlorophenyl)but-1-en-1-yl]-2-(trifluoromethyl)benzohydrazide] | 0% | 0% |
| O=C(NNc1ncccn1)c1ccc(/C(F)=C/C(c2cc(Br)c(F)c(Br)c2)C(F)(F)F)cc1C(F)(F)F (centres unmarked) [F163, (Z)-4-(3-(3,5-Dibromo-4-fluorophenyl)-1,4,4,4-tetrafluorobut-1-en-1-yl)-N′-(pyrimidin-2-yl)-2-(trifluoromethyl)benzohydrazide] | 50 to 100% | 50 to 100% |
| Cc1cc(C)c(NNC(=O)c2ccc(/C(F)=C/C(c3cc(Cl)c(Cl)c(Cl)c3)C(F)(F)F)cc2C(F)(F)F)c(C)c1 (centres unmarked) [F73, (Z)—N′-Mesityl-4-(1,4,4,4-tetrafluoro-3-(3,4,5-trichlorophenyl)but-1-en-1-yl)-2-(trifluoromethyl)benzohydrazide] | 50 to 100% | 0 to 50% |
| O=C(NNc1ccncn1)c1ccc(/C(F)=C/C(c2cc(Cl)c(Cl)c(Cl)c2)C(F)(F)F)cc1C(F)(F)F (centres unmarked) [F19, (Z)—N′-(Pyrimidin-4-yl)-4-(1,4,4,4-tetrafluoro-3-(3,4,5-trichlorophenyl)but-1-en-1-yl)-2-(trifluoromethyl)benzohydrazide] | 50 to 100% | 50 to 100% |
| O=C(NNc1cccc(C(F)(F)F)n1)c1ccc(/C(F)=C/C(c2cc(Cl)c(Cl)c(Cl)c2)C(F)(F)F)cc1C(F)(F)F (centres unmarked) [F141, (Z)-4-(1,4,4,4-Tetrafluoro-3-(3,4,5-trichlorophenyl)but-1-en-1-yl)-2-(trifluoromethyl)-N′-(6-(trifluoromethyl)pyridin-2-yl)benzohydrazide] | 50 to 100% | 50 to 100% |
| O=C(NNc1ncc(F)cn1)c1ccc(/C(F)=C/C(c2cc(Cl)c(Cl)c(Cl)c2)C(F)(F)F)cc1C(F)(F)F (centres unmarked) [F114, (Z)—N′-(5-Fluoropyrimidin-2-yl)-4-(1,4,4,4-tetrafluoro-3-(3,4,5-trichlorophenyl)but-1-en-1-yl)-2-(trifluoromethyl)benzohydrazide] | 50 to 100% | 50 to 100% |
| CC(C)CCNNC(=O)c1ccc(/C(F)=C/C(c2cc(Cl)c(Cl)c(Cl)c2)C(F)(F)F)cc1C(F)(F)F (centres unmarked) [F145, (Z)—N′-Isopentyl-4-(1,4,4,4-tetrafluoro-3-(3,4,5-trichlorophenyl)but-1-en-1-yl)-2-(trifluoromethyl)benzohydrazide] | 50 to 100% | 50 to 100% |
| O=C(NNC1CCC1)c1ccc(/C(F)=C/C(c2cc(Cl)c(Cl)c(Cl)c2)C(F)(F)F)cc1C(F)(F)F (centres unmarked) [F138, (Z)—N′-Cyclobutyl-4-(1,4,4,4-tetrafluoro-3-(3,4,5-trichlorophenyl)but-1-en-1-yl)-2-(trifluoromethyl)benzohydrazide] | 50 to 100% | 50 to 100% |
| COC(=O)c1scc(C)c1NNC(=O)c1ccc(/C(F)=C/C(c2cc(Cl)c(Cl)c(Cl)c2)C(F)(F)F)cc1C(F)(F)F (centres unmarked) [F15, Methyl (Z)-4-methyl-3-(2-(4-(1,4,4,4-tetrafluoro-3-(3,4,5-trichlorophenyl)but-1-en-1-yl)-2-(trifluoromethyl)benzoyl)hydrazinyl)thiophene-2-carboxylate] | 50 to 100% | 50 to 100% |
| CC(C)N(NC(=O)c1ccc(/C(F)=C/C(c2cc(Cl)c(Cl)c(Cl)c2)C(F)(F)F)cc1C(F)(F)F)c1ncccn1 (centres unmarked) [F169, (Z)—N′-Isopropyl-N′-(pyrimidin-2-yl)-4-(1,4,4,4-tetrafluoro-3-(3,4,5-trichlorophenyl)but-1-en-1-yl)-2-(trifluoromethyl)benzohydrazide] | 50 to 100% | 50 to 100% |
| O=C(/N=N/c1ncccn1)c1ccc(/C(F)=C/C(c2cc(Cl)c(Cl)c(Cl)c2)C(F)(F)F)cc1C(F)(F)F (centres unmarked) [F192, ((E)-pyrimidin-2-yldiazenyl)(4-((Z)-1,4,4,4-tetrafluoro-3-(3,4,5-trichlorophenyl)but-1-en-1-yl)-2-(trifluoromethyl)phenyl)methanone] | 50 to 100% | 50 to 100% |
| CN(NC(=O)c1ccc(/C(F)=C/C(c2cc(F)c(F)c(Cl)c2)C(F)(F)F)cc1C(F)(F)F)c1ncccn1 (centres unmarked) [F175, (Z)-4-(3-(3-Chloro-4,5-difluorophenyl)-1,4,4,4-tetrafluorobut-1-en-1-yl)-N′-methyl-N′-(pyrimidin-2-yl)-2-(trifluoromethyl)benzohydrazide] | 50 to 100% | 50 to 100% |
| O=C(NNc1cncnc1)c1ccc(/C(F)=C/C(c2cc(Cl)c(Cl)c(Cl)c2)C(F)(F)F)cc1C(F)(F)F (centres unmarked) [F31, (Z)—N′-(Pyrimidin-5-yl)-4-(1,4,4,4-tetrafluoro-3-(3,4,5-trichlorophenyl)but-1-en-1-yl)-2-(trifluoromethyl)benzohydrazide] | 50 to 100% | 50 to 100% |
| CN(NC(=O)c1ccc(/C(F)=C/[C@@H](c2cc(Cl)c(Cl)c(Cl)c2)C(F)(F)F)cc1C(F)(F)F)c1ncccn1 (single isomer, unassigned) [F17] | 50 to 100% | 50 to 100% |
| O=C(NNc1ccnnc1)c1ccc(/C(F)=C/C(c2cc(Cl)c(Cl)c(Cl)c2)C(F)(F)F)cc1C(F)(F)F (centres unmarked) [F33, (Z)—N′-(Pyridazin-4-yl)-4-(1,4,4,4-tetrafluoro-3-(3,4,5-trichlorophenyl)but-1-en-1-yl)-2-(trifluoromethyl)benzohydrazide] | 50 to 100% | 50 to 100% |
| CCc1cnc(N(C)NC(=O)c2ccc(/C(F)=C/C(c3cc(Cl)c(Cl)c(Cl)c3)C(F)(F)F)cc2C(F)(F)F)nc1 (centres unmarked) [F41, (Z)—N′-(5-Ethylpyrimidin-2-yl)-N′-methyl-4-(1,4,4,4-tetrafluoro-3-(3,4,5-trichlorophenyl)but-1-en-1-yl)-2-(trifluoromethyl)benzohydrazide] | 50 to 100% | 50 to 100% |
| O=C(NNc1ncccn1)c1ccc(/C(F)=C/C(c2cc(Br)c(Cl)c(Br)c2)C(F)(F)F)cc1C(F)(F)F (centres unmarked) [F185, (Z)-4-(3-(3,5-Dibromo-4-chlorophenyl)-1,4,4,4-tetrafluorobut-1-en-1-yl)-N′-(pyrimidin-2-yl)-2-(trifluoromethyl)benzohydrazide] | 50 to 100% | 50 to 100% |
| O=C(NNc1ccc(Cl)nc1)c1ccc(/C(F)=C/C(c2cc(Cl)c(Cl)c(Cl)c2)C(F)(F)F)cc1C(F)(F)F (centres unmarked) [F136, (Z)—N′-(6-Chloropyridin-3-yl)-4-(1,4,4,4-tetrafluoro-3-(3,4,5-trichlorophenyl)but-1-en-1-yl)-2-(trifluoromethyl)benzohydrazide] | 50 to 100% | 50 to 100% |
| O=C(NNc1cccnn1)c1ccc(/C(F)=C/C(c2cc(Cl)c(Cl)c(Cl)c2)C(F)(F)F)cc1C(F)(F)F (centres unmarked) [F86] | 50 to 100% | 50 to 100% |
| CSc1nccc(NNC(=O)c2ccc(/C(F)=C/C(c3cc(Cl)c(Cl)c(Cl)c3)C(F)(F)F)cc2C(F)(F)F)n1 (centres unmarked) [F5, (Z)—N′-(2-(Methylthio)pyrimidin-4-yl)-4-(1,4,4,4-tetrafluoro-3-(3,4,5-trichlorophenyl)but-1-en-1-yl)-2-(trifluoromethyl)benzohydrazide] | 50 to 100% | 50 to 100% |
| N#CCCNNC(=O)c1ccc(/C(F)=C/C(c2cc(Cl)c(Cl)c(Cl)c2)C(F)(F)F)cc1C(F)(F)F (centres unmarked) [F142, (Z)—N′-(2-Cyanoethyl)-4-(1,4,4,4-tetrafluoro-3-(3,4,5-trichlorophenyl)but-1-en-1-yl)-2-(trifluoromethyl)benzohydrazide] | 50 to 100% | 50 to 100% |
| O=C(Nn1cnnc1)c1ccc(/C(F)=C/C(c2cc(Cl)c(Cl)c(Cl)c2)C(F)(F)F)cc1C(F)(F)F (centres unmarked) [F48, (Z)-4-(1,4,4,4-Tetrafluoro-3-(3,4,5-trichlorophenyl)but-1-en-1-yl)-N-(4H-1,2,4-triazol-4-yl)-2-(trifluoromethyl)benzamide] | 0% | 0% |
| O=C(NNC1CCCC1)c1ccc(/C(F)=C/C(c2cc(Cl)c(Cl)c(Cl)c2)C(F)(F)F)cc1C(F)(F)F (centres unmarked) [F110, (Z)—N′-Cyclopentyl-4-(1,4,4,4-tetrafluoro-3-(3,4,5-trichlorophenyl)but-1-en-1-yl)-2-(trifluoromethyl)benzohydrazide] | 50 to 100% | 50 to 100% |
